Experimental data reported in paper PMC3832595, “Synthesis of a Pseudo-Disaccharide Library and Its Application to the Characterisation of the Heparanase Catalytic Site” (PLoS ONE, 2013).

Target: T1, human heparanase (Homo sapiens, UniProt Q9Y251)
T1 construct: purchased Apollo Scientific, Cheshire UK
T1 sequence (Q9Y251 158-543 limits assumed): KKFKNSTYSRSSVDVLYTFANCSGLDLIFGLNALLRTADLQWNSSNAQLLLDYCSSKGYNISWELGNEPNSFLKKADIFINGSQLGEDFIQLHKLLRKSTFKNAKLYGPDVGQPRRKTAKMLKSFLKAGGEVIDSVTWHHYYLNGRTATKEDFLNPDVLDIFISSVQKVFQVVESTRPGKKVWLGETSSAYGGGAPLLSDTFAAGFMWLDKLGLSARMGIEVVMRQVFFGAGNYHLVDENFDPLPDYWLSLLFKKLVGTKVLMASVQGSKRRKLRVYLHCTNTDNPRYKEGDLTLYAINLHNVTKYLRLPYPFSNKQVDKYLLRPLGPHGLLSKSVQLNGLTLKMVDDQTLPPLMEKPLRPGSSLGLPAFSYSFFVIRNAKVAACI
T1 sequence (Q9Y251 36-109 limits assumed): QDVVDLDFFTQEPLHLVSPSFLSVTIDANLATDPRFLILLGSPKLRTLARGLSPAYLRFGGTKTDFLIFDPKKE
Test: Heparanase inhibition assay (biotinylated heparan sulfate degradation, CBD-FGF binding, avidin-POD detection; modified Genway kit)
Assay type: biochemical
Conditions: recombinant human heparanase; for IC50: mean of three readings ± standard error, read-out: IC50 (n=3) against human heparanase

Compound	IC50 [µM]	Inhibition of heparanase (result in words)
NC1CC(CO)C(OC2OC(CO)C(O)C(O)C2O)CC1O (stereo not shown) [8a]	1200 ± 300	–
NC1CC(CO)C(OC2OC(CO)C(O)C(O)C2O)CC1O (stereo not shown) [8b]	800 ± 200	–
NC1CC(CO)C(OC2OC(CO)C(O)C(O)C2O)CC1O (stereo not shown) [8c]	> 10000	no significant activity
NC1CC(CO)C(OC2OC(CO)C(O)C(O)C2O)CC1O (stereo not shown) [8d]	800 ± 200	–
CCCCOC1CC(O)C(N)CC1CO (stereo not shown) [compound 11]	> 10000	no significant inhibition
